Data as given in patent publication US12214092B2, “Systems and methods for treating biological fluids” (Cerus Corporation, priority 2017, dated 2025).
“And” between values parts separate entries of the source, which are not always exact repeats. Identical values can stand only once. Like-named read-outs stand apart in the source and are kept apart here.

Columns and labels:
E. coli [1] = assay: Amotosalen and two sequential UV light doses (UVC + UVA) treatment of E. coli in plasma, colony forming unit assay; type: cell-based; conditions: 15 μM amotosalen, titer pre-UV 6.57; for Titer Post-Second: ~3 J/cm^2 each
Protocol: Additionally, any two or more wavelengths of narrow bandwidth light are evaluated in combination, such as for example, photochemical treatment of a biological fluid using amotosalen and ultraviolet light of a first peak wavelength and ultraviolet light of a second peak wavelength, sequentially or concurrently. More specifically, in one example pathogen inactivation of E. coli (Gram negative) and S. epidermidis (Gram positive) bacteria was evaluated using amotosalen and the device with LEDs of wavelengths described in Example 8. […] The spiked plasma units were divided into control (no amotosalen+UV light) and treatment (with amotosalen) conditions, with amotosalen used at 15 μM concentration. The units were aliquoted into six-well plates (5 mL/well) for illumination. Pre-illumination samples were taken and control bacterial titers determined using standard colony forming unit assay. […] Data for pre-illumination titers, post-first illumination titer, post-second illumination titer, and post-treatment (after second illumination) residual amotosalen (S-59) are shown in the following Tables 40-41.

E. coli [2] = assay: Photochemical inactivation of E. coli in human plasma with amotosalen and UVA, colony forming unit assay; type: cell-based; conditions: for E. coli Log Reduction: ~6.4 J/cm^2, n = 2
[3] = S-59 and photoproducts post-treatment in platelets in PAS/plasma, 150 μM amotosalen, liquid chromatography mass spectrometry; type: physicochemical
Text: As mass spec extinction coefficients for photoproducts were assumed identical as S-59 extinction coefficients, only relative difference in concentrations (μM) between samples are compared in the following Table 9b, rather than absolute concentrations.

[4] = Amotosalen concentration pre- and post-UV in platelets (plasma or PAS/plasma), 340 nm ~7.2 J/cm^2, HPLC
Protocol: A study was performed to evaluate the photoconversion of amotosalen in platelets in 10000 plasma, as well as function of the platelets over 7 days (Day 3, Day 7) following photochemical treatment using the 340 nm device of the present disclosure. Multiple donor platelet units in 10000 plasma (5 units, ˜278-391 mL) were pooled and split into 5 units of ˜285 mL each, to be used as an untreated control, or treated with amotosalen at different concentrations, with ultraviolet A illumination using the 340 nm device. Amotosalen was added to a concentration of 30, 60, 90 or 110 μM, then pre-illumination (pre-UV) samples were removed for analysis, and the remainder of the units subjected to illumination at ˜7.2 J/cm^2. Post-illumination (Post-UV) samples were then removed for post-treatment analysis.

[5] = tested on: vesicular stomatitis virus (VSV); type: cell-based; conditions: for Log Inact. / Post-Txt Titer / Pre-Txt Titer: 30 μM, listed as amotosalen; for Log inactivation / Post-treatment titer / Pre-treatment titer: 150 μM

## Cc1oc2c(C)c3oc(=O)cc(C)c3cc2c1COCCN [S-59, 3-(2-aminoethoxymethyl)-2,5,9-trimethylfuro[3,2-g]chromen-7-one]
E. coli [1]; UV 1 265 nm then UV 2 325 nm
  Titer Post-Second: <−0.11
E. coli [1]; UV 1 265 nm then UV 2 340 nm
  Titer Post-Second: <−0.11
E. coli [1]; UV 1 265 nm then UV 2 365 nm
  Titer Post-Second: <−0.11
E. coli [1]; UV 1 265 nm ~3 J/cm^2 (then 325 nm)
  Titer Post-First: 3.58
E. coli [1]; UV 1 265 nm ~3 J/cm^2 (then 340 nm)
  Titer Post-First: 3.86
E. coli [1]; UV 1 265 nm ~3 J/cm^2 (then 365 nm)
  Titer Post-First: 2.95
E. coli [1]; UV 1 280 nm then UV 2 325 nm
  Titer Post-Second: <−0.11
E. coli [1]; UV 1 280 nm then UV 2 340 nm
  Titer Post-Second: <−0.11
E. coli [1]; UV 1 280 nm then UV 2 365 nm
  Titer Post-Second: <−0.11
E. coli [1]; UV 1 280 nm ~3 J/cm^2 (then 325 nm)
  Titer Post-First: 3.66
E. coli [1]; UV 1 280 nm ~3 J/cm^2 (then 340 nm)
  Titer Post-First: 4.15
E. coli [1]; UV 1 280 nm ~3 J/cm^2 (then 365 nm)
  Titer Post-First: 4.11
E. coli [1]; UV 1 325 nm then UV 2 265 nm
  Titer Post-Second: <−0.11
E. coli [1]; UV 1 325 nm then UV 2 280 nm
  Titer Post-Second: <−0.11
E. coli [1]; UV 1 325 nm ~3 J/cm^2 (then 265 nm)
  Titer Post-First: <−0.11
E. coli [1]; UV 1 325 nm ~3 J/cm^2 (then 280 nm)
  Titer Post-First: <−0.11
E. coli [1]; UV 1 340 nm then UV 2 265 nm
  Titer Post-Second: <−0.11
E. coli [1]; UV 1 340 nm then UV 2 280 nm
  Titer Post-Second: <−0.11
E. coli [1]; UV 1 340 nm ~3 J/cm^2 (then 265 nm)
  Titer Post-First: <−0.11
E. coli [1]; UV 1 340 nm ~3 J/cm^2 (then 280 nm)
  Titer Post-First: <−0.11
E. coli [1]; UV 1 365 nm then UV 2 265 nm
  Titer Post-Second: <−0.11
E. coli [1]; UV 1 365 nm then UV 2 280 nm
  Titer Post-Second: <−0.11
E. coli [1]; UV 1 365 nm ~3 J/cm^2 (then 265 nm)
  Titer Post-First: <−0.11
E. coli [1]; UV 1 365 nm ~3 J/cm^2 (then 280 nm)
  Titer Post-First: <−0.11
E. coli [2]; 340 nm, 1.5 μM, ~3 J/cm^2
  Log reduction: 1.3 log
  Post-UVA titer: 5.0 log cfu/mL
  Pre-UVA titer: 6.3 log cfu/mL
E. coli [2]; 340 nm, 1.5 μM, ~6 J/cm^2
  Log reduction: 1.5 log
  Post-UVA titer: 4.8 log cfu/mL
  Pre-UVA titer: 6.3 log cfu/mL
E. coli [2]; 340 nm, 1.5 μM, ~9 J/cm^2
  Log reduction: 1.4 log
  Post-UVA titer: 4.9 log cfu/mL
  Pre-UVA titer: 6.3 log cfu/mL
E. coli [2]; 340 nm, 15 μM, ~3 J/cm^2
  Log reduction: 4.7 log
  Post-UVA titer: 1.4 log cfu/mL
  Pre-UVA titer: 6.1 log cfu/mL
E. coli [2]; 340 nm, 15 μM, ~6 J/cm^2
  Log reduction: 5.6 log
  Post-UVA titer: 0.5 log cfu/mL
  Pre-UVA titer: 6.1 log cfu/mL
E. coli [2]; 340 nm, 15 μM, ~9 J/cm^2
  Log reduction: 5.6 log
  Post-UVA titer: 0.5 log cfu/mL
  Pre-UVA titer: 6.1 log cfu/mL
E. coli [2]; 340 nm, 150 μM, ~3 J/cm^2
  Log reduction: >7.0 log
  Post-UVA titer: <−0.7 log cfu/mL
  Pre-UVA titer: 6.3 log cfu/mL
E. coli [2]; 340 nm, 220 mL plasma, 15 μM
  E. coli Log Reduction: 6.0 log
E. coli [2]; 340 nm, 350 mL plasma, 15 μM
  E. coli Log Reduction: 4.6 log
E. coli [2]; INT-100, 15 μM, ~3 J/cm^2
  Log reduction: 4.2 log
  Post-UVA titer: 2.0 log cfu/mL
  Pre-UVA titer: 6.2 log cfu/mL
E. coli [2]; INT-100, 150 μM, ~3 J/cm^2
  Log reduction: >7.1 log
  Post-UVA titer: <−0.7 log cfu/mL
  Pre-UVA titer: 6.4 log cfu/mL
E. coli [2]; INT-100, 220 mL plasma, 15 μM
  E. coli Log Reduction: 5.3 log
E. coli [2]; INT-100, 350 mL plasma, 15 μM
  E. coli Log Reduction: 4.4 log
[3]; 340 nm, ~3.6 J/cm^2
  Post-illumination concentration (relative, LC-MS): 21.3 µM
[3]; 340 nm, ~7.2 J/cm^2
  Post-illumination concentration (relative, LC-MS): 4.8 µM
[3]; 340 nm, ~10.8 J/cm^2
  Post-illumination concentration (relative, LC-MS): 2.5 µM
[3]; INT100, ~3.6 J/cm^2
  Post-illumination concentration (relative, LC-MS): 37.0 µM
[3]; INT100, ~7.2 J/cm^2
  Post-illumination concentration (relative, LC-MS): 11.6 µM
[3]; INT100, ~10.8 J/cm^2
  Post-illumination concentration (relative, LC-MS): 12.0 µM
[4]; 30 μM, PAS/Plasma, Post-UV
  Amotosalen concentration: 0.3 µM
[4]; 30 μM, PAS/Plasma, Pre-UV
  Amotosalen concentration: 30.5 µM
[4]; 30 μM, Plasma, Post-UV
  Amotosalen concentration: 1.1 µM
[4]; 30 μM, Plasma, Pre-UV
  Amotosalen concentration: 32.7 µM
[4]; 60 μM, PAS/Plasma, Post-UV
  Amotosalen concentration: 0.7 µM
[4]; 60 μM, PAS/Plasma, Pre-UV
  Amotosalen concentration: 61.2 µM
[4]; 60 μM, Plasma, Post-UV
  Amotosalen concentration: 2.3 µM
[4]; 60 μM, Plasma, Pre-UV
  Amotosalen concentration: 62.0 µM
[4]; 90 μM, PAS/Plasma, Post-UV
  Amotosalen concentration: 1.0 µM
[4]; 90 μM, PAS/Plasma, Pre-UV
  Amotosalen concentration: 90.5 µM
[4]; 90 μM, Plasma, Post-UV
  Amotosalen concentration: 4.0 µM
[4]; 90 μM, Plasma, Pre-UV
  Amotosalen concentration: 89.7 µM
[4]; 110 μM, PAS/Plasma, Post-UV
  Amotosalen concentration: 1.2 µM
[4]; 110 μM, PAS/Plasma, Pre-UV
  Amotosalen concentration: 120.7 µM
[4]; 110 μM, Plasma, Post-UV
  Amotosalen concentration: 5.5 µM
[4]; 110 μM, Plasma, Pre-UV
  Amotosalen concentration: 105.8 µM
[5]; 220 mL, 340 nm LED ~3.0 J/cm^2
  Log Inact.: 2.28 log and 2.39 log
  Post-Txt Titer: 4.32 log10 and 2.85 log10
[5]; 220 mL, INT 100 ~3.0 J/cm^2
  Log Inact.: 2.02 log and 1.97 log
  Post-Txt Titer: 4.58 log10 and 3.27 log10
[5]; 220 mL
  Pre-Txt Titer: 6.60 log10 and 5.24 log10
[5]; 350 mL, 340 nm LED ~3.0 J/cm^2
  Log Inact.: 2.34 log and 2.21 log
  Post-Txt Titer: 4.26 log10 and 3.03 log10
[5]; 350 mL, INT 100 ~3.0 J/cm^2
  Log Inact.: 1.76 log and 1.66 log
  Post-Txt Titer: 4.93 log10 and 3.58 log10
[5]; 350 mL
  Pre-Txt Titer: 6.60 log10 and 5.24 log10
[5]; 340 nm LED ~6.4 J/cm^2
  Log inactivation: 4.6 log
  Post-treatment titer: 1.7 log PFU
[5]; 340 nm unit
  Pre-treatment titer: 6.3 log PFU
[5]; 365 nm LED ~6.4 J/cm^2
  Log inactivation: 3.0 log
  Post-treatment titer: 3.3 log PFU
[5]; 365 nm unit
  Pre-treatment titer: 6.3 log PFU
[5]; INT-100 unit
  Pre-treatment titer: 6.3 log PFU
[5]; INT-100 ~6.4 J/cm^2
  Log inactivation: 3.4 log
  Post-treatment titer: 2.9 log PFU
